{"source": "patent US20250090510A1", "about": "“eIF4G1-eIF1 INHIBITORS AND USE THEREOF” (YEDA RESEARCH AND DEVELOPMENT CO. LTD., priority 2022, published 2025)", "key": {"[1]": {"test": "Analysis of uptake (intracellular levels) by LC-MS", "format": "in vitro ADME", "conditions": "for concentration by LC-MS, Media: Media (amount applied)", "method": "To determine the intracellular levels of i14G1-10 and i14G1-12, cells treated with these drugs for 3 h were extensively washed and then analyzed by LC-MS. Both compounds were detected within the cells, but the amount of i14G1-12 was substantially lower than the amount that was applied (Table 4)."}, "[2]": {"test_system": "near cognate start codon initiation in HEK293T cells", "test": "Firefly luciferase reporter with AUG or near cognate start codons", "format": "cell-based, human", "conditions": "5 μM, 16 h", "method": "FIGS. 4A-L: The effect eIF1-eIF4G1 inhibition by i14G1-10 or i14G1-12 on global translation is linked to start codon stringency. (4A) HEK293T cells were treated with DMSO, i14G1-10 (20 μM), and i14G-20 (10 μM) for 3 h and then ribosome foot printing libraries were prepared, sequenced and analyzed as described in the scheme. The presented graphs show meta-gene analysis of the distribution of normalized reads in the coding region (CDS) and 5′UTR of all analyzed genes in DMSO (black), i14G1-10 (blue), and i14G1-12 (red). […] (4F) The translation efficiency of eIF1 in DMSO, i14G1-10 and i14G1-12 samples calculated from the Ribo-seq data. […] (4J) Scatter plots showing the translation efficiencies correlations (R2 >0.9) of all analyzed genes between the two independent replicate experiments with DMSO (vehicle control) (top), i14G1-10 (middle), and i14G1-12 (bottom). (4K) Scatter plots showing the translation efficiencies correlations between 5′UTR and CDS (Pearson's r >0.5) of all analyzed genes of two independent replicate experiments with i14G1-10 (left) and i14G1-12 (right).\nReporter assays. […] The luminescence was measured on Turner Biosystems Luminometer.\nNext, the sequence context of the translation initiation site (TIS) in the ribosome footprints of the 5′UTR in DMSO, i14G1-10 or i14G1-12 samples was determined. To assign the 5′UTR TISs, the Hrr+CHX reads were used (see Materials and Methods). […]"}, "[3]": {"conditions": "cells treated 3 h, extensively washed"}}}
{"compound": "O=C(/C=C/Sc1ccc(C(F)(F)F)cn1)c1ccccc1", "note": "[i14G1-10]", "values": [{"measurement": "concentration by LC-MS, Media", "setting": "[1]", "result": 6200, "unit": "ng/mL"}, {"measurement": "concentration by LC-MS, i14G1-10 treated cells", "setting": "[1]; [3]", "result": "1130 ± 40", "unit": "ng/mL"}, {"measurement": "concentration by LC-MS, i14G1-12 treated cells", "setting": "[1]; [3]", "result": "Not detected"}, {"measurement": "near cognate start codon reporter activities relative to AUG", "setting": "[2]", "result": "significantly enhanced the activities of ACG, CUG, GUG, and UUG relative to AUG"}]}
{"compound": "Cn1ccnc1S/C(=C/C=C(C#N)C#N)c1ccc(Cl)cc1", "note": "[i14G1-12]", "values": [{"measurement": "concentration by LC-MS, Media", "setting": "[1]", "result": 3300, "unit": "ng/mL"}, {"measurement": "concentration by LC-MS, i14G1-10 treated cells", "setting": "[1]; [3]", "result": "Not detected"}, {"measurement": "near cognate start codon reporter activities relative to AUG", "setting": "[2]", "result": "significantly enhanced the activities of ACG, CUG, GUG, and UUG relative to AUG"}]}
